{"source": "patent US11419834B2", "about": "“Methods for treating diseases or infections caused by or associated with H. pylori using a halogenated salicylanilide” (Rhode Island Hospital, priority 2019, dated 2022)", "key": {"H. pylori (strain 60190) [1]": {"system": "H. pylori (strain 60190)", "experiment": "Checkerboard synergy assay (FICI)", "type": "cell-based, Helicobacter pylori", "conditions": "for FICI value Niclosamide: test compound in combination with niclosamide", "method": "References to “synergy” of the halogenated salicylanilide with other therapeutic agents described herein refer to an activity which is greater than the sum of the individual agents used alone. The degree of antimicrobial synergy may be assessed by calculating the fractional inhibitory concentration index (FICI) using the checkerboard assay described in the Examples herein. For two agents A and B, the FICI is calculated as: FICI=MICA-B in combination/(MICA alone+MICB alone) Synergy occurs when the FICI is ≤0.5; partial synergy for 0.5≤FICI≤1.0; no interaction […]; and antagonism FICI >4.0.\nAntibacterial synergy was tested using the checkerboard assay using the method described in Zheng Z et al. (Antimicrob. Agents Chemother. 2017 July; 61(7)).\nNiclosamide was combined with antibiotics and proton pump inhibitors (PPIs). Cultures of H. pylori (strain 60190) were adjusted to OD600=0.06 and added to compound pairs that had been serially diluted in the same 96-well plates, vertically for one compound and horizontally for the other. Assays were carried out in triplicate as described in the antibacterial susceptibility assay described above. The combinatorial inhibitory concentration was indicated by the fractional inhibitory concentration index (FICI): FICI=MICA combination/MICA alone+MICB combination/MICB alone Paired combinations of compounds and their observed FICI are listed in Table 4. Synergistic activity, where the combined antibacterial effect of the 2 antimicrobial agents is more than the sum of their effects alone, is defined by FICI 0.5, antagonism by FICI >4.0 and ‘no interaction’ by FICI >0.5-4.0."}, "H. Pylori 49503": {"system": "H. Pylori 49503", "experiment": "Broth microdilution assay, MIC", "type": "cell-based", "conditions": "Helicobacter pylori; strain H. Pylori 49503"}, "H. Pylori 43504": {"system": "H. Pylori 43504", "experiment": "Broth microdilution assay, MIC", "type": "cell-based", "conditions": "Helicobacter pylori; strain H. Pylori 43504"}, "H. pylori (strain 60190) [2]": {"system": "H. pylori (strain 60190)", "experiment": "Effect of pH on MIC (broth microdilution)", "type": "cell-based, Helicobacter pylori", "conditions": "pH 7.0 to 5.2", "method": "The pH was adjusted to acidic condition with 1 N HCl. The minimal bactericidal concentration (MBC) was determined by plating 5 μL of broth culture from the MIC assay onto Müller-Hinton agar (BD Biosciences) supplemented with 10% FBS. After 72 h, the lowest concentration at which colonies were not observed was reported as the MBC."}, "H. Pylori 51932": {"system": "H. Pylori 51932", "experiment": "Broth microdilution assay, MIC", "type": "cell-based", "conditions": "Helicobacter pylori; strain H. Pylori 51932"}, "[3]": {"system": "IL-8 secretion from MKN-28 cells co-cultured with H. pylori", "experiment": "IL-8 secretion, real-time RT-PCR", "type": "cell-based", "conditions": "10× MIC, H. pylori infected MKN-28 cells", "method": "Real-Time (RT-PCR) was carried out to determine whether niclosamide has an inhibitory role in IL-8 secretion. MKN-28 cells were co-cultured with H. pylori (MOI=100) in the presence or absence of a test compound. At 24 hours, RNA was isolated from the infected host cells. cDNA was synthesized using the Verso cDNA (Invitrogen) synthesis kit according to manufacturer instructions. Quantitative real-time reactions were carried out in a Bio-Rad iTaq universal SYBR (Bio-Rad, Hercules, Calif. USA) one-step kit and a CFX98 real-time PCR cycler as described by Zheng et al. (Future Med. Chem. 2018, February; 10(3):283-296). The relative gene expression was calculated from Cq values using a ΔΔCq method."}, "[4]": {"system": "AGS cells invaded by H. pylori", "experiment": "Invasion, gentamicin protection assay", "type": "cell-based, Helicobacter pylori", "conditions": "0.1 μg/mL, 20 hours, AGS cells", "method": "(§1) The AGS (Gastric adenocarcinoma cell lines) cell line was used to examine inhibition of adhesion and invasion of H. pylori (strain 60190) by niclosamide, as described by Schmitt et al. (Front Cell Infect Microbiol. 2013; 3:93). The AGS cells were grown in Dulbecco's Modified Eagle Medium (DMEM, ex. Gibco), supplemented with 10% fetal bovine serum (Gibco) and 1% penicillin/streptomycin (Gibco) and maintained at 37° C. in 5% C02. Then, 5×10^5 cells in antibiotic and serum-free DMEM were seeded in 6-well plates 24 hours prior to infection. H. pylori bacteria at a multiplicity of infection (MOI)=100 were added and allowed to adhere to the surface of the AGS cells. Planktonic bacteria were removed after 2 hours and DMEM with niclosamide (2×MIC) was then added to the wells containing the AGS. The mammalian cells were lysed by 0.1% saponin after 20 hours of incubation and the adhered bacteria were then serially diluted, plated in Brucella agar supplemented with 10% FBS, and incubated as described above. A control arm of DMSO and a comparator using amoxicillin at a concentration of 0.1 μg/mL (10×MIC) was also assessed. […]"}, "[5]": {"system": "H. pylori bacteria (strain 60190)", "experiment": "Multi-step mutation frequency (serial passage resistance study)", "type": "cell-based, Helicobacter pylori", "conditions": "for increase in MIC during continuous passage: passaged sequentially over 30 days", "method": "To determine whether H. pylori can develop resistance against niclosamide, bacterial cells were suspended in MHB with 10% FBS at OD600=0.06 in the presence of serially diluted niclosamide and incubated, as described in the antibiotic susceptibility assays sub-section. The standard antibiotics amoxicillin and clarithromycin were used as controls. From the highest drug concentration allowing visible growth at sub-MIC concentration, aliquots were diluted (1:40) into fresh medium. These were used to inoculate the second set of serial drug dilutions as described by Dalhoff et al. (Clin Infect Ds. 2001 Mar. 15; 32 Suppl, 1:S16-22). After a 3-day incubation, H. pylori bacteria (strain 60190) were passaged sequentially over 30 days and the OD was recorded."}, "[6]": {"system": "H. pylori (strain 60190) adhered to AGS cells", "experiment": "Adhesion of H. pylori to AGS cells", "type": "cell-based, Helicobacter pylori", "conditions": "0.1 μg/mL (10×MIC)", "method": "as §1"}, "H. pylori bacteria": {"system": "H. pylori bacteria", "experiment": "Scanning electron microscopy of morphology", "type": "cell-based, Helicobacter pylori"}, "H. pylori strain 60190": {"system": "H. pylori strain 60190", "experiment": "Minimum bactericidal concentration (plating from MIC assay)", "type": "cell-based, Helicobacter pylori"}, "[7]": {"system": "H. pylori reference strain 60190 (ATCC 49503)", "experiment": "Broth microdilution assay, MIC", "type": "cell-based", "conditions": "Helicobacter pylori, ATCC49503, 72 h; H. pylori strain 60190; Müller-Hinton broth + 10% FBS, 3 days"}, "[8]": {"conditions": "Helicobacter pylori, H. pylori strain 60190, read-out: MBC"}}, "note": "Where two headings read alike, the source gives them in different places."}
{"compound": "CC1(C)S[C@@H]2[C@H](NC(=O)[C@H](N)c3ccc(O)cc3)C(=O)N2[C@H]1C(=O)O", "note": "[Amoxicillin, amoxicillin]", "values": [{"measurement": "FICI value Niclosamide", "setting": "H. pylori (strain 60190) [1]", "result": 2.0}, {"measurement": "MIC", "setting": "H. Pylori 49503", "result": 0.01, "unit": "µg/mL"}, {"measurement": "MIC", "setting": "H. Pylori 43504", "result": 0.03, "unit": "µg/mL"}, {"measurement": "change of MIC at acidic pH compared to pH 7.0", "setting": "H. pylori (strain 60190) [2]", "result": "increased"}, {"measurement": "MIC", "setting": "H. Pylori 51932", "result": 0.01, "unit": "µg/mL"}, {"measurement": "effect on IL-8 secretion", "setting": "[3]", "result": "inhibited IL-8 secretion"}, {"measurement": "effect on intracellular bacteria", "setting": "[4]", "result": "eliminated bacteria completely"}, {"measurement": "change in MIC through at least 10 passages", "setting": "[5]", "result": 2, "unit": "fold"}, {"measurement": "increase in MIC during continuous passage", "setting": "[5]", "result": 2, "unit": "fold"}, {"measurement": "effect on bacterial adhesion", "setting": "[6]", "result": "eliminated bacterial adhesion completely"}, {"measurement": "morphology by SEM", "setting": "H. pylori bacteria; 0.1 μg/mL (10×MIC)", "result": "morphological changes and decreased cell size"}, {"measurement": "MBC", "setting": "H. pylori strain 60190; [8]", "result": 0.5, "unit": "µg/mL"}, {"measurement": "MIC", "setting": "[7]", "result": 0.01, "unit": "µg/mL"}]}
{"compound": "N#CC(C#N)=NNc1cccc(Cl)c1", "note": "[CCCP, carbonyl cyanide m-chlorophenylhydrazone]", "values": [{"measurement": "morphology by SEM", "setting": "H. pylori bacteria; 10 μM", "result": "morphological changes and decreased cell size"}]}
{"compound": "CC[C@H]1OC(=O)[C@H](C)[C@@H](O[C@H]2C[C@@](C)(OC)[C@@H](O)[C@H](C)O2)[C@H](C)[C@@H](O[C@@H]2O[C@H](C)C[C@H](N(C)C)[C@H]2O)[C@](C)(OC)C[C@@H](C)C(=O)[C@H](C)[C@@H](O)[C@]1(C)O", "note": "[Clarithromycin, clarithromycin]", "values": [{"measurement": "FICI value Niclosamide", "setting": "H. pylori (strain 60190) [1]", "result": 1.0}, {"measurement": "MIC", "setting": "H. Pylori 49503", "result": 0.0025, "unit": "µg/mL"}, {"measurement": "MIC", "setting": "H. Pylori 43504", "result": 0.005, "unit": "µg/mL"}, {"measurement": "change of MIC at acidic pH compared to pH 7.0", "setting": "H. pylori (strain 60190) [2]", "result": "increased"}, {"measurement": "MIC", "setting": "H. Pylori 51932", "result": 0.005, "unit": "µg/mL"}, {"measurement": "change in MIC through at least 10 passages", "setting": "[5]", "result": 2, "unit": "fold"}, {"measurement": "exposure time after which MIC increased", "setting": "[5]; continuous exposure, 30 day study", "result": "> 24", "unit": "days"}, {"measurement": "increase in MIC during continuous passage", "setting": "[5]", "result": 4, "unit": "fold"}, {"measurement": "MBC", "setting": "H. pylori strain 60190; [8]", "result": 0.25, "unit": "µg/mL"}, {"measurement": "MIC", "setting": "[7]", "result": 0.0025, "unit": "µg/mL"}]}
{"compound": "Cc1cc(C(C#N)c2ccc(Cl)cc2)c(Cl)cc1NC(=O)c1cc(I)cc(I)c1O", "note": "(stereo not shown) [Closantel, closantel]", "values": [{"measurement": "MBC", "setting": "H. pylori strain 60190; H. pylori strain 60190", "result": 16.0, "unit": "µg/mL"}, {"measurement": "MBC", "setting": "H. pylori strain 60190; [8]", "result": 16, "unit": "µg/mL"}, {"measurement": "MIC", "setting": "[7]", "result": 16, "unit": "µg/mL"}]}
{"compound": "Cc1ncc([N+](=O)[O-])n1CCO", "note": "[Metronidazole, metronidazole]", "values": [{"measurement": "interaction with niclosamide", "setting": "H. pylori (strain 60190) [1]; combination with niclosamide", "result": "partially synergistic"}, {"measurement": "FICI value Niclosamide", "setting": "H. pylori (strain 60190) [1]", "result": 0.75}]}
{"compound": "COc1ccc2[nH]c([S+]([O-])Cc3ncc(C)c(OC)c3C)nc2c1", "note": "(stereo not shown) [Omeprazole, omeprazole]", "values": [{"measurement": "FICI value Niclosamide", "setting": "H. pylori (strain 60190) [1]", "result": 0.625}]}
{"compound": "O=C(Nc1cc(Cl)cc(Cl)c1O)c1c(O)c(Cl)cc(Cl)c1Cl", "note": "[Oxyclozanide, oxyclozanide]", "values": [{"measurement": "MBC", "setting": "H. pylori strain 60190; [8]", "result": 4, "unit": "µg/mL"}, {"measurement": "MIC", "setting": "[7]", "result": 2, "unit": "µg/mL"}]}
{"compound": "COc1ccnc(C[S+]([O-])c2nc3ccc(OC(F)F)cc3[nH]2)c1OC", "note": "(stereo not shown) [Pantoprazole, pantoprazole]", "values": [{"measurement": "FICI value Niclosamide", "setting": "H. pylori (strain 60190) [1]", "result": 0.75}]}
{"compound": "O=C(Nc1ccc(Oc2ccc(Cl)cc2)c(Cl)c1)c1cc(I)cc(I)c1O", "note": "[Rafoxanide, rafoxanide]", "values": [{"measurement": "MBC", "setting": "H. pylori strain 60190; Helicobacter pylori, 60190", "result": 8, "unit": "µg/mL"}]}
